Data on 21 compounds can be found in US10537558B2 (Bantam Pharmaceutical, LLC, priority 2015, dated 2020).

This experiment has as its system BJAB cells. Nature of the experiment: BJAB cell proliferation (Cell Titer Glo). Type of experiment: cell-based. The note with it: Homo sapiens, read-out: EC50. Put shortly: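 EC50 values come from non-linear regression of luminescence (Cell Titer Glo), expressed relative to untreated wells. BJAB cells were incubated roughly 72 h at 37 °C with serial compound dilutions carrying 0.1% final DMSO.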
(In ATP-based viability assays light output follows the ATP content of the culture.)

The term EC50 denotes the concentration giving half of the maximal effect. On to `Cc1nn(-c2nc(-c3ccc(Cl)c(Cl)c3)c(SC(C)C)s2)c(C(=O)N2CCOCC2)c1-c1cc(C(F)(F)F)cc(C(F)(F)F)c1` [Compound 139, (4-(3,5-bis(trifluoromethyl)phenyl)-1-(4-(3,4-dichlorophenyl)-5-(isopropylthio)thiazol-2-yl)-3-methyl-1H-pyrazol-5-yl)(morpholino)methanone], for which the EC50 fell in the range of 10 to 25 µM.

For `CSc1sc(-n2nc(C)c(Cc3ccccc3[N+](=O)[O-])c2C(=O)O)nc1-c1ccc(Cl)c(Cl)c1` [Compound 45, 1-(4-(3,4-dichlorophenyl)-5-(methylthio)thiazol-2-yl)-3-methyl-4-(2-nitrobenzyl)-1H-pyrazole-5-carboxylic acid], the concentration for a half-maximal effect (EC50) lay within 25 to 50 µM.

For the compound `COc1cc(-c2nc(-n3nc(C)c(-c4cc(C)nc(C)c4)c3C(=O)O)sc2SC(C)C)ccc1Cl` [Compound 194, 1-(4-(4-chloro-3-methoxyphenyl)-5-(isopropylthio)thiazol-2-yl)-4-(2,6-dimethylpyridin-4-yl)-3-methyl-1H-pyrazole-5-carboxylic Acid], the EC50 lay within 1 to 5 µM.

Turning to `Cc1ccccc1-c1c(C)nn(-c2nc(-c3ccc(Cl)c(Cl)c3)c(SC(C)C)s2)c1C(=O)N1CCC(CN)CC1` [Compound 131, (4-(aminomethyl)piperidin-1-yl)(1-(4-(3,4-dichlorophenyl)-5-(isopropylthio)thiazol-2-yl)-3-methyl-4-o-tolyl-1H-pyrazol-5-yl)methanone], the concentration for a half-maximal effect (EC50) fell in the range of 1 to 5 µM.

`COc1cc(-c2nc(-n3nc(C)c(-c4cccc(F)c4)c3C(=O)O)sc2SC(C)C)ccc1F` [Compound 189, 1-(4-(4-fluoro-3-methoxyphenyl)-5-(isopropylthio)thiazol-2-yl)-4-(3-fluorophenyl)-3-methyl-1H-pyrazole-5-carboxylic Acid]: the 50% effective concentration (EC50) fell in the range of 10 to 25 µM.

For the compound `Cc1nn(-c2nc(-c3ccc(Cl)c(Cl)c3)c(SC(C)C)s2)c(C(=O)O)c1-c1cccc2ccn(C)c12` [Compound 155, 1-(4-(3,4-dichlorophenyl)-5-(isopropylthio)thiazol-2-yl)-3-methyl-4-(1-methyl-1H-indol-7-yl)-1H-pyrazole-5-carboxylic Acid], the EC50 lay in the range of 5 to 10 µM.

As to `Cc1nn(-c2nc(-c3ccc(Cl)c(Cl)c3)c(SC(C)C)s2)c(C(=O)O)c1-c1cccc(C(F)(F)F)c1` [Compound 51, 1-(4-(3,4-dichlorophenyl)-5-(isopropylthio)thiazol-2-yl)-3-methyl-4-(3-(trifluoromethyl)phenyl)-1H-pyrazole-5-carboxylic Acid], the EC50 lay within 1 to 5 µM.

For `Cc1nn(-c2nc(-c3ccc(Cl)c(Cl)c3)c(SC(C)C)s2)c(C(=O)O)c1-c1nc2ccccc2n1C` [Compound 68, 1-(4-(3,4-dichlorophenyl)-5-(isopropylthio)thiazol-2-yl)-3-methyl-4-(1-methy-1H-benzo[d]imidazol-2-yl)-1H-pyrazole-5-carboxylic acid], the EC50 is above 50 µM.

For the compound `Cc1nn(-c2nc(-c3ccc(Cl)c(Cl)c3)c(SC(C)C)s2)c(C(=O)O)c1-c1nnc2ccccn12` [Compound 56, 4-([1,2,4]triazolo[4,3-a]pyridin-3-yl)-1-(4-(3,4-dichlorophenyl)-5-(isopropylthio)thiazol-2-yl)-3-methyl-1H-pyrazole-5-carboxylic Acid], the EC50 was above 50 µM.

In the case of `Cc1nn(-c2nc(-c3ccc(Cl)c(Cl)c3)c(SC(C)C)s2)c(C(=O)O)c1-c1ccncc1` [Compound 47, 1-(4-(3,4-dichlorophenyl)-5-(isopropylthio)thiazol-2-yl)-3-methyl-4-(pyridin-4-yl)-1H-pyrazole-5-carboxylic Acid], the EC50 fell in the range of 5 to 10 µM.

Turning to `Cc1nn(-c2nc(-c3ccc(Cl)c(Cl)c3)c(SC(C)C)s2)c(C(=O)O)c1Cc1ccccc1NS(=O)(=O)N(C)C` [Compound 122, 1-(4-(3,4-dichlorophenyl)-5-(isopropylthio)thiazol-2-yl)-4-(2-(N,N-dimethylsulfamoylamino)benzyl)-3-methyl-1H-pyrazole-5-carboxylic acid], the EC50 lay within 10 to 25 µM.

Regarding `Cc1cc(-c2c(C)nn(-c3nc(-c4ccc(Cl)c(C)c4)c(SC(C)C)s3)c2C(=O)O)cc(C)n1` [Compound 190, 1-(4-(4-chloro-3-methylphenyl)-5-(isopropylthio)thiazol-2-yl)-4-(2,6-dimethylpyridin-4-yl)-3-methyl-1H-pyrazole-5-carboxylic Acid], the EC50 fell in the range of 1 to 5 µM.

Take `Cc1nn(-c2nc(-c3ccc(Cl)c(Cl)c3)c(SC(C)C)s2)c(C(=O)O)c1-c1ncc[nH]1` [Compound 63, 1-(4-(3,4-dichlorophenyl)-5-(isopropylthio)thiazol-2-yl)-4-(1H-imidazol-2-yl)-3-methyl-1H-pyrazole-5-carboxylic acid]: the half-maximal effective concentration (EC50) is 10 to 25 µM.

Consider `Cc1cc(-c2c(C)nn(-c3nc(-c4ccc(Cl)cc4Cl)c(SC(C)C)s3)c2C(=O)O)cc(C)n1` [Compound 160, 1-(4-(2,4-dichlorophenyl)-5-(isopropylthio)thiazol-2-yl)-4-(2,6-dimethylpyridin-4-yl)-3-methyl-1H-pyrazole-5-carboxylic Acid], for which the EC50 is below 1 µM.

Take `CNc1cc(-c2c(C)nn(-c3nc(-c4ccc(Cl)c(Cl)c4)c(SC(C)C)s3)c2C(=O)O)ccn1` [Compound 134, 1-(4-(3,4-dichlorophenyl)-5-(isopropylthio)thiazol-2-yl)-3-methyl-4-(2-(methylamino)pyridin-4-yl)-1H-pyrazole-5-carboxylic acid]: the EC50 fell in the range of 10 to 25 µM.

With `Cc1nn(-c2nc(-c3ccncc3)c(SC(C)C)s2)c(C(=O)O)c1-c1cc(Cl)cc(Cl)c1` [Compound 29, 4-(3,5-dichlorophenyl)-1-(5-(isopropylthio)-4-(pyridin-4-yl)thiazol-2-yl)-3-methyl-1H-pyrazole-5-carboxylic acid], the EC50 was above 25 µM.

As to `COc1cccc(-c2nc(-n3nc(C)c(-c4cc(C)nc(C)c4)c3C(=O)O)sc2SC(C)C)c1` [Compound 35, 4-(2,6-dimethylpyridin-4-yl)-1-(5-(isopropylthio)-4-(3-methoxyphenyl)thiazol-2-yl)-3-methyl-1H-pyrazole-5-carboxylic Acid], the concentration for a half-maximal effect (EC50) fell in the range of 1 to 5 µM.

For `Cc1nn(-c2nc(-c3ccc(Cl)c(Cl)c3)c(SC(C)C)s2)c(C(=O)O)c1-c1ccccc1C(F)(F)F` [Compound 50, 1-(4-(3,4-dichlorophenyl)-5-(isopropylthio)thiazol-2-yl)-3-methyl-4-(2-(trifluoromethyl)phenyl)-1H-pyrazole-5-carboxylic acid], the EC50 lay in the range of 5 to 10 µM.

Regarding `COc1cc(-c2c(C)nn(-c3nc(-c4ccc(Cl)c(Cl)c4)c(SC(C)C)s3)c2C(=O)O)ccn1` [Compound 166, 1-(4-(3,4-dichlorophenyl)-5-(isopropylthio)thiazol-2-yl)-4-(2-methoxypyridin-4-yl)-3-methyl-1H-pyrazole-5-carboxylic acid], the half-maximal effective concentration (EC50) is 5 to 10 µM.

With `Cc1cc(-c2c(C)nn(-c3nc(-c4cc(F)c(Cl)c(F)c4)c(SC(C)C)s3)c2C(=O)O)cc(C)n1` [Compound 192, 1-(4-(4-chloro-3,5-difluorophenyl)-5-(isopropylthio)thiazol-2-yl)-4-(2,6-dimethylpyridin-4-yl)-3-methyl-1H-pyrazole-5-carboxylic Acid], the EC50 lay in the range of 1 to 5 µM.

`Cc1nn(-c2nc(-c3ccc(Cl)c(Cl)c3)c(OC(C)C)s2)c(C(=O)O)c1-c1cccc(F)c1` [Compound 230, 1-(4-(3,4-dichlorophenyl)-5-isopropoxythiazol-2-yl)-4-(3-fluorophenyl)-3-methyl-1H-pyrazole-5-carboxylic acid]: the EC50 fell in the range of 5 to 10 µM.
